According to patent US6469027B1, “N-methyl-D-aspartate (NMDA) receptor blockers for the prevention of atherosclerosis” (The Board of Regents of the University of Nebraska, priority 1996, dated 2002):

What was measured:
[1] = test system: c-myb; experiment: c-myb expression in N-VSMC (RT-PCR, immunoprecipitation and western blot); format: cell-based, chicken
Method: FIGS. 3A, 3B and 3C are RNA blot analyses of c-fos and c-myb mRNA isolated from N-VSMC cultures. Cultures were incubated in the absence and presence of 200μM H[cys] for 0, (lane 1); 15 min, (lane 2); 30 min, (lane 3); 45 min, (lane 4) and 60 min, (lane 5); and analyzed for c-fos expression. In FIG. 3B, the time course of c-myb MRNA induction in the presence of 200μM H[cys] for 0 h, (lane 1); 8 h, (lane 2); 16 h, (lane 3); 24 h, (lane 4). The c-fos transcripts were analyzed by northern blot and normalized to β actin expression. The amount of c-myb mRNA levels were normalized to estrogen receptor (ER) transcripts as determined by RT-PCR. […] The amount of c-myb mRNA levels were normalized to estrogen receptor (ER) transcripts as determined by RT-PCR. The amount of specific radiolabeling in the autoradiograph was quantified by scanning densitometry. The size of the c-Myb protein is 75 kilodaltons. The 75 kilodalton band is defined as c-Myb because immunoprecipitation of this protein was not detected in the presence of synthetic polypeptide [[…] encoded by sequences 1080-1133].
FIG. 4 is a graph illustrating the analysis of c-myb synthesis in response to NMDA receptor antagonist, Mk-801 and CGS19755. Immunoprecipitation and western blotting of radiolabeled c-Myb from N-VSMC treated with 200μMH[cys] in the presence and absence of 50 μM Mk-801 or 1 mM CGS19755. Cell cultures were treated with and without H[cys] for 24 hours, extracts were immunoprecipitated with anti c-myb IgG and samples were separated by SDS-PAGE gels and western blotted. The amount of specific radiolabeling in the autoradiograph was quantified by scanning densitometry. The size of the c-Myb protein is 75 kilodaltons. The 75 kilodalton band is defined as c-Myb because immunoprecipitation of this protein was not detected in the presence of synthetic polypeptide [I13-[…] encoded by sequences 1080-1133].
RNA Blot Analysis: Total RNA was isolated from VSMC derived from thoracic and abdominal aorta by homogenization, and lysis with guanidinium isothiocyanate was followed by phenol-chloroform extraction. Ten micrograms of total RNA per lane was separated in a 1.5% agarose-formaldehyde gel, and the RNA was transferred by capillary transfer to a 0.45 μm nylon membrane. Filters were hybridized as previously with cDNAs labeled with [^32P]deoxycytidine5′-triphosphate to specific activities of approximately 2×10^9 cpm/μg using a random prime labeling kit (Boehringer Mannheim Biochemicals, Indianapolis, Ind.). The probes included chicken c-fos, Bactin, estrogen receptor (ER) and c myb.
Reverse Transcriptase-Polymerase Chain Reaction: Reverse transcription of 4 to 10,000 nanograms (ng) of RNA using 10 picomoles (pm) of hexamer primers was performed for 90 minutes (min) at 37° C. using 200 units superscript reverse transcriptase (Gibco BRL), in 50 mM Tris, pH, 8.2, 75 Mm KC1, 3 mM MgCl2, 10 mM dithiothreitol (DTT), 1 unit/μ1 RNasin (Promega), and 1 mM each of DATP, dCTP, dGTP, and dTTP. The samples were heated at 95° C. for 5 min to terminate the reverse transcription. The resulting cDNA was treated with 1 unit of […] at 37° C. for 20 min. A 5% fraction of the cDNA was subjected to PCR using c-myb upstream (5′ggTCCTTTgAAgATgCTgCC3′) and downstream(5′[…]gAgTCCgggTTg3′) primers; estrogen receptor (ER) (5′ggACTgCCAgCTgCCgATCTT3′) and (5′CTCACgAATgTggCgCCT3′) primers; β actin (5′AAgAggTAATCCTgACCCCTgAA3′) and (5′ACCCTgACCATCAgggAgTTCA3′) primers. PCR was performed using 0.25 μM of each primer, 3 μM cDNA, 0.2 mM of each deoxynucleotide triphosphate, 75 mM KC1, 1.5 mM MgCl2 and 0.5 unit Taq polymerase (Perkin Elmer; Cetus) in 10 mM Tris-HC1, pH 8.3 with total volume of 100 μl. […] PCR products were analyzed by electrophoresis in 1.5% agarose gels stained with ethidium bromide. PCR amplifications of all target templates and controls were run in parallel or on the same sample. […]

[2] = test system: N-VSMC; experiment: Cell proliferation (cell number) of N-VSMC cultures; format: cell-based, chicken; details: 100 μM H[cys]; between day 6 and 10; 1% serum
Method: FIGS. 5A and 5B are graphs illustrating cell growth and DNA synthesis of N-VSMC cultures. (A) Cells were cultured in M199 supplemented with 1% FBS in the presence and absence of 100 μM H[cys]. The medium was renewed every three days and cell numbers were determined by Coulter counter or emocytometer. Each point represents the mean of quadruplicate samples counted six times. (B) Cells were grown to confluency, growth arrested in M199 and 1 μg/ml of bovine serum albumin for two days. Cultures were exposed to various concentrations of H[cys] (0.01-1000 μM) for 30 h, pulse labeled for 6 h with 2 μCi/ml of [^3H]thymidine. The amount of [^3H]thymidine incorporation was determined by scintillation spectrophotometry. Results are shown as the mean of ±S.E.M.
FIGS. 7A-7C are graphs illustrating the effect of H[cys] on diacylglycerol content in N-VSMC. (A) Time course of changes of membrane diacylglycerol content cell treated with 100μM H[cys] for the various times. Cells were recovered, membrane lipids extracted and diacylglycerol amounts determined as described in Methods. Results are expressed as the mean ± standard error of quadruplicate incubations from six independent experiments. (B) Effects of varying concentrations of H[cys] on diacylglycerol synthesis. Cells were treated for 30 min with different concentrations of H[cys] and membrane lipids were isolated and the diacylglycerol content determined. (C) Effect of PKC inhibitors on H[cys] mediated cell proliferation. N-VSMC cultures were grown in 1% FBS and 100 μM H[cys] in the presence and absence of staurosporine and cheleyrithrine chloride for the times (days-d) indicated. Cells were counted in quadruplicate in a Coulter counter every three days. Values represent the mean ±S.D. from four independent experiments.
Smooth Muscle Culture: The thoracic (N) and abdominal (M) aorta of normal 16 and 18-day embryos were cleaned of fat, and the intima-media was isolated from the adventitia. The intima-media was enzymatically dispersed into a single cell suspensions by a combination of collagenase and elastase followed by trypsin. VSMC were placed in primary culture at a constant density of 2×10^4 cells/cm^2 in multiwell plates or 100 mm culture plates in Medium 199 supplemented with 10% fetal bovine serum (FMS) and 2 mM glutamine, in an atmosphere of 95% air: 5% Co2 at 37° C. Primary cultures were grown for 7 days before they were seeded into first passage at the same cell density and grown to confluence. Experiments were carried out between passages 3-6. Experimental conditions for all cells included 48 h in Medium 199 supplemented with 1% FBS prior to initiating and experiment.

[3] = test system: PDGG-AA; experiment: PDGG-AA release from TA-VSMCs; format: cell-based; details: 0.2 mM
[4] = test system: N-VSMC; experiment: Cell proliferation (cell number) of N-VSMC cultures; format: cell-based, chicken; details: 0.01 to 100 μM for 36 h

Structure (SMILES): N[C@@H](CCS)C(=O)O [homocysteine]
- c-myb mRNA transcripts induced ([1]; 200 μM homocysteine): 6 fold
- cMyb protein ([1]; 30 and 100 μM): dose dependent increase
- c-myb induction ([1]; neural crest derived smooth muscle cells): induced
- cell number increased [2]: 9 fold
- delay in PDGG-AA release [3]: not observed
- cell number in the absence of serum [4]: no increase in cell number
